Test results: patent US20210220450A1, “TREATMENT OF AN IOP CONDITION” (The Research Foundation for The State University of New York, priority 2013, published 2021)

System: sheep of the Coriedale breed
Assay: Steroid-induced IOP elevation in sheep, tPA injected into the anterior chamber (Example 9)
Type: in vivo
Method: Methods. Lyophilized tPA, obtained as Acetilyse® from Boehringer Ingelheim S. A. (Buenos Aires) containing arginine, was used. Five sheep of the Coriedale breed were selected. Initially all eyes received instillation of 1% prednisolone 3 times/day for 10 days to elevate their IOP from 10 mm Hg to about 23 mm Hg. Then, 0.0001 μg was injected into one of the eyes and its effect was followed for up to 55:00 hrs while the instillation of prednisolone continued in both eyes. The same protocol was implemented for the 0.001 and 0.01 μg amounts (after extended washout) in the contra lateral eyes. Arginine, which is associated with 0.01 ug tPA, was injected alone and had no effect.

tissue plasminogen activator [tPA]
effect on IOP (0.0001 μg into the AC, IOP 23.0 mm Hg at 6:00 and 30:00 hrs): had no effect
IOP (0.001 μg into the AC, 6:00 hr, from 23.1): 18.6 mmHg
IOP (0.001 μg into the AC, 30:00 hr): 22.3 mm Hg
IOP (0.01 μg into the AC, 6:00 hrs, baseline 23.4): 14.2 mm Hg
IOP (0.01 μg into the AC, 30:00 hrs): 19.0 mm Hg
IOP (0.01 μg into the AC, 48:00 hrs): 20.9 mm Hg
IOP (0.01 μg into the AC, 55:00 hrs): 22.3 mm Hg
effect on IOP (single dose of 1 μg of tPA injected intracamerally): reduction in IOP
